The target of assay [1] is T1, EGFR (Homo sapiens, UniProt P00533).
T1 construct: A431 […] cell lysate is stored at −80° C; host or cells: A431 cell lysate
In words: Assay for modulation of EGFR activity (ELISA). It is filed as biochemical. The note with it: read-out: bio EGFR IC50. The method, then:
Using the following reagents, supplies, and method, the ability of compounds of the invention to modulate the in vitro activity of EGFR can be readily determined in an ELISA.
A431 […] cell lysate is stored at −80° C.
ATP/MnCl2 phosphorylation mix is prepared by adding 300 μL of 1.0 mM ATP and […] of 1M MnCl2 to 9.2 mL of dH2O and mixing. Ten mL of phosphorylation mix is enough for about 6 assay plates. Note that the mixture should be made fresh and kept on ice immediately before use, and that although the preferred ATP is fresh from powder stock, any remaining stock solution of ATP may be frozen at −20° C. in small aliquots to be used at a later time.
Coat Corning 96 well ELISA plates with 0.5 μg per well with SUMO1 in a volume of 100 μL PBS overnight, at 4° C. Remove unbound SUMO1 from wells by inverting plate to remove liquid. Wash 1× with distilled H2O by filling wells. Pat the plate on a paper towel to remove excess liquid.
Add 150 μL of Blocking Buffer to each well. Incubate for 30 minutes at room temperature, with shaking. Wash plate 3× with deionized water, then once with TBST. Pat plate on a paper towel to remove excess liquid and bubbles.
Dilute lysate in PBS (7 μg lysate/[…]) and add 100 μL of diluted lysate to each well. Shake at room temperature for 60 minutes. Wash 1× with distilled H2O by filling wells. Pat the plate on a paper towel to remove excess liquid.
Add 120 μL TBST to ELISA plate containing captured EGFR.
Dilute drugs/extracts 1:10 (unless specified otherwise) in TBST in 96-well polypropylene plates. (i.e., 10 μL compound+90 μL TBST). Add 13.5 μL diluted drugs/extracts to ELISA plate. […] Incubate for 30 minutes while shaking at room temperature.
Approximately 150 μL final volume in well with 3 uM ATP/5 mM MnCl2 final concentration in well. Incubate 5 minutes while shaking. Note that this is a timed event. It is critical that ATP/MnCl2 phosphorylates the receptor for only 5 minutes. It is best to add the ATP/MnCl2 with an automated 96 place pipettor workstation, then 5 minutes later stop the reaction with EDTA using the same workstation. Alternatively, addition can be performed using a 12 channel pipettor 1 row at a time, leaving 20 seconds between each row so that the reaction may be stopped with EDTA exactly 5 minutes later (this depends on the number of plates being phosphorylated in one batch). Shake between each addition.
[…] This is done using either the same work station as above, or the same timing method employed with the 12 channel pipettor. After the EDTA has been added, shake for 1 minute. Wash 4× with deionized water, twice with TBST.
Add 100 μL per well of anti-phosphotyrosine (1:3000 dilution in TBST). Incubate 30-45 minutes at room temperature, with shaking. Wash 1× with distilled H2O by filling wells. Pat the plate on a paper towel to remove excess liquid.
Incubate 30 minutes at room temperature, with shaking. Wash 1× with distilled H2O by filling wells. Pat the plate on a paper towel to remove excess liquid.
Add 100 μL of ABTS/H2O2 solution to each well. Incubate 5 to 10 minutes while shaking. Remove any bubbles. If necessary stop reaction with the addition of 100 μL of 0.2M HCl per well.
Read assay on Dynatech MR7000 ELISA reader.

Assay [2] has as its target T2, HER-2 (Homo sapiens, UniProt P04626).
T2 construct: expressed in mouse 3T3 (clone C7) cells; P00533 (Epidermal growth factor receptor)
As to the kind of experiment: Assay for modulation of HER-2 activity in whole cells (ELISA). It is filed as cell-based. The note with it: EGFR/HER-2chimera/#T3-C7 cell lines, EGF stimulated; read-out: HER-2 kinase IC50. As to the method: Using the following reagents, supplies, and method, the ability of compounds of the invention to affect the activity of HER-2 in whole cells in an ELISA format can be assigned.
EGFR/HER-2chimera/#T3-C7 cell lines are used for this assay. Choose dishes having 80-90% confluence for the experiment. Collect cells by trypsinization and centrifuge at 1000 rpm at room temperature for 5 minutes.
Resuspend cells in starve medium and count with trypan blue. Only viability above 90% is acceptable. Seed cells in starve medium at a density of 2,500 cells per well, 90 μL per well, in a 96 well microtiter plate. Incubate seeded cells in 5% CO2 at 37° C. overnight. Start the assay two days after seeding.
Samples are diluted directly into a polypropylene plate containing starve-DMEM (non-sterile is okay). This dilution will be 1:10 or greater, depending on the samples being screened. The same amount of DMSO is put into the control wells. […] are then transferred to the cell plate at a 1:10 dilution (10 μL of sample and media into 90 μL of starve media). The final DMSO concentration will be 1% or lower.
Ten samples are put into wells 2-11 of row A of the NUNC 96 well polypropylene plate. These wells contain straight starve-DMEM. For a 1:10 dilution, one would put 10 μL of drug into 90 μL of media. The rest of the wells (including the controls) will have a DMSO/media mixture. The percentage of DMSO in this mixture is determined by the first dilution factor, in this case 1:10. The DMSO concentration is therefore 10%. An equal amount of drug and media from row A is put into row B, containing DMSO and media. The same amount is then taken out and put into row C. This is repeated for all rows. These are 1:2 dilutions. All wells are then transferred to the cell plate at a 1:10 dilution (10 μL of sample and media into 90 μL of starve-DMEM. The final DMSO concentration will be 1% or lower. […]
After a 2 hour incubation with the drug, add prepared EGF ligand to cells at 50 μL per well, for a final concentration of 50 nM. Positive control wells (8) receive the same amount of EGF. […] Incubate at 37° C. for 10 minutes.
Remove drug, EGF, and DMEM by dumping in sink. Wash cells once with PBS.
Transfer HNTG* to cells, 100 μL per well. Place on ice for 5 minutes. Meanwhile, remove blocking buffer from ELISA plate and wash as described above. With a pipette tip securely fitted to a micropipettor, scrape cells from plate and homogenize cell material by repeatedly aspirating and dispensing the HNTG* lysis buffer. Transfer lysate to a coated, blocked, washed ELISA plate. Alternatively, one may use a Costar transfer cartridge to transfer lysate to the ELISA plate. Incubate, shaking, at room temperature for one hour.
Remove lysate by dumping in sink, then wash as described earlier. Transfer freshly diluted anti-phosphotyrosine (anti-Ptyr) antibody (1:3000 in TEST) to ELISA plate, 100 μL per well. Incubate, shaking, at room temperature, for 30 minutes.
Remove anti-Ptyr antibody by dumping in sink, then wash as described earlier. Transfer freshly diluted BIOSOURCE antibody to ELISA plate, (1:8000 in TEST), 100 μL per well. Incubate, shaking, at room temperature for 30 minutes.
Remove BIOSOURCE antibody by dumping in sink, then wash as described earlier. Transfer freshly prepared ABTS/H2O2 solution to ELISA plate, […]. Incubate 5-10 minutes while shaking. Remove any bubbles and if necessary, stop reaction with the addition of 100 μL of 0.2 M HCl per well.
Read assay on Dynatech MR7000 ELISA reader. Test Filter: […]; Reference Filter: […]. A preferred template for the placement of controls in this experiment is provided below: […]

The structures appear in SMILES notation. pIC50: −log10 of the molar value.

T2 sequence (P04626 720-987 limits assumed): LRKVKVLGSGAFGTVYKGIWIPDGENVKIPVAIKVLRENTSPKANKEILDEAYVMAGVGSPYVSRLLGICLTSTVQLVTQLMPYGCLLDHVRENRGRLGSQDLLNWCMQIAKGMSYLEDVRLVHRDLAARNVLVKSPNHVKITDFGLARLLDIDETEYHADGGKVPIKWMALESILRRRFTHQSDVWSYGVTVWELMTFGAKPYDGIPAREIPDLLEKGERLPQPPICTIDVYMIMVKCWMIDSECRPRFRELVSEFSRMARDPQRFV
T1 sequence (P00533 25-1210): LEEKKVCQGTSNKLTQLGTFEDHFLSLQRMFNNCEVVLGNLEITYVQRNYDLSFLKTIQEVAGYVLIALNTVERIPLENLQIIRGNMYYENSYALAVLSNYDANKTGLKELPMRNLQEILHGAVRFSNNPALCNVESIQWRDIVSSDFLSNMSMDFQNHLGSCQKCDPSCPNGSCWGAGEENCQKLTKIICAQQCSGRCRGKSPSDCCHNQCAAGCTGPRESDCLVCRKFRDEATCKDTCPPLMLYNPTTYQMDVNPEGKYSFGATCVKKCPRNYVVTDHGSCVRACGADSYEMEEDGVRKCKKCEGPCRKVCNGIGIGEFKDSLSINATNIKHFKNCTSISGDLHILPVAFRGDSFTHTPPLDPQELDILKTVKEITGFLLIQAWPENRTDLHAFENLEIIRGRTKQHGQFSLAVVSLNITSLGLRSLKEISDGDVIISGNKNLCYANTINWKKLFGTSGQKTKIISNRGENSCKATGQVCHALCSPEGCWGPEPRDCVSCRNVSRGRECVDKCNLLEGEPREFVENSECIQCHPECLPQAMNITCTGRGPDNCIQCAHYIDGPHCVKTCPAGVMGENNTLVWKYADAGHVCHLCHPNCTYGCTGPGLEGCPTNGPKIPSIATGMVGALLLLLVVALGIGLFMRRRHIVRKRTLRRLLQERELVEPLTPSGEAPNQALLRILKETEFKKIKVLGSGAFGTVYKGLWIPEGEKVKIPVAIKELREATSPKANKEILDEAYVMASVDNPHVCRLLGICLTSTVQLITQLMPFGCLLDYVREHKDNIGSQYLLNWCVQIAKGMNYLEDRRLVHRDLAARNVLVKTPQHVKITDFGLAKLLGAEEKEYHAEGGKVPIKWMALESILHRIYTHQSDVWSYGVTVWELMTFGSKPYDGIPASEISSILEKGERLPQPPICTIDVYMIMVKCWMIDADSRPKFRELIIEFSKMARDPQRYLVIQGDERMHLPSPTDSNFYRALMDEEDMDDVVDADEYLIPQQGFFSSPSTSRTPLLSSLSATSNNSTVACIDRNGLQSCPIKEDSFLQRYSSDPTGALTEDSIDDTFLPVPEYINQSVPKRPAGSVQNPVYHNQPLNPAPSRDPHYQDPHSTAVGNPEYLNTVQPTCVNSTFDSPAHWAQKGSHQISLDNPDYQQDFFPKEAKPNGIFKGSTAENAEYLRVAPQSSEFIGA

On to `Cc1cc(CCC(=O)N2CCN(C)CC2)[nH]c1/C=C1\C(=O)Nc2ncnc(Nc3ccc(F)c(Cl)c3)c21` [Formula 25], for which the results for the pIC50 in assay [1] and in assay [2] were 7.24 and 4.92, respectively.
For `CCN(CC)CCNC(=O)c1c(C)[nH]c(/C=C2\C(=O)Nc3ncnc(Nc4ccc(F)c(Cl)c4)c32)c1C` [Formula 28], the pIC50 in assay [1] is 6.68; in assay [2], 6.80.
As for `Cc1cc(C(=O)NCCN2CCOCC2)[nH]c1/C=C1\C(=O)N(C)c2ncnc(Nc3ccc(F)c(Cl)c3)c21` [Formula 32], the pIC50 in assay [1] is 5.15; in assay [2], 4.73.
Regarding `Cc1cc(/C=C2\C(=O)Nc3ncnc(Nc4ccc(F)c(Cl)c4)c32)[nH]c1C(=O)N1CCN(C)CC1` [Formula 35], the negative-log IC50 (pIC50) in assay [1] was 6.40; in assay [2], 6.23.
In the same order, the values of `Cc1cc(CCC(=O)O)[nH]c1/C=C1\C(=O)Nc2ncnc(Nc3ccc(F)c(Cl)c3)c21` [Formula 49] are 8.30 and 5.74.
For the compound `Cc1[nH]c(/C=C2\C(=O)Nc3ncnc(Nc4ccc(F)c(Cl)c4)c32)c(C)c1CC(=O)O` [Formula 51], the pIC50 in assay [1] was 7.42; in assay [2] it was 6.07.

Source of the values: patent US6908930B2, “4-substituted 7-AZA-indolin-2-ones and their use as protein kinase inhibitors” (Sugen, Inc., priority 1999, dated 2005).
